Data on ten compounds can be found in patent publication US9296757B2, “Substituted benzothienopyrimidines” (BAYER PHARMA AKTIENGESELLSCHAFT, priority 2012, dated 2016).

Chain of human full-length MKNK1 (Q9BUB5 other isoform, or with tags, fused parts or gaps T344D): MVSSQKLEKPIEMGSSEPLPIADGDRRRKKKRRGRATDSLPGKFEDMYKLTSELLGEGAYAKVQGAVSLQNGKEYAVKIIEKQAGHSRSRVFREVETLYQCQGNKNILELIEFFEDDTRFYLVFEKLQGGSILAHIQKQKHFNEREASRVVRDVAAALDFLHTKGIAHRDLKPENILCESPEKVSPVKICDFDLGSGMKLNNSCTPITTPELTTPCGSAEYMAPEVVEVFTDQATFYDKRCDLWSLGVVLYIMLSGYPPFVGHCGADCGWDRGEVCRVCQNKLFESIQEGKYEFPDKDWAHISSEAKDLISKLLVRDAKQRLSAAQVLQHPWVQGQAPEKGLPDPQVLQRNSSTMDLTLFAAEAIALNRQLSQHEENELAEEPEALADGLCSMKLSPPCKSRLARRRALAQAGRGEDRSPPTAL

The target of the assay is human full-length MKNK1 (Homo sapiens (Human), UniProt Q9BUB5, T344D). Description: MKNK1 kinase high ATP assay (TR-FRET). It is filed as biochemical. As to conditions: high ATP (2 mM final), 15 min preincubation with enzyme. In outline:
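GST-tagged full-length MKNK1 (T344D), insect-cell expressed, preincubated 15 min at 22 °C with compound, then reacted 30 min at 22 °C with 2 mM ATP and 0.06 μM biotinylated peptide in HEPES pH 7.5 buffer (final concentrations). Phospho-peptide detected by TR-FRET (665/620 nm ratio), normalised to no-inhibitor and no-enzyme controls.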
In general, IC50 refers to the concentration that inhibits the measured activity by half. Low readings indicate greater potency in that assay, high ones weaker potency in that assay. The compound `CCCN(CCOC)C(=O)C1CCc2c(sc3ncnc(Nc4ccc5[nH]c(=O)sc5c4)c23)C1` (racemic) [Example 69, (RS)-N-(2-methoxyethyl)-4-[(2-oxo-2,3-dihydro-1,3-benzothiazol-6-yl)amino]-N-propyl-5,6,7,8-tetrahydro[1]benzothieno[2,3-d]pyrimidine-7-carboxamide] yielded an IC50 of 19 nM. With `CCN(CCOC)C(=O)C1CCc2c(sc3ncnc(Nc4ccc5[nH]c(=O)sc5c4)c23)C1` (racemic) [Example 70, (RS)-N-ethyl-N-(2-methoxyethyl)-4-[(2-oxo-2,3-dihydro-1,3-benzothiazol-6-yl)amino]-5,6,7,8-tetrahydro[1]benzothieno[2,3-d]pyrimidine-7-carboxamide], the IC50 came out at 24 nM. This IC50 and that of the compound before are within 1.5-fold of each other. For `O=C(C1CCc2c(sc3ncnc(Nc4ccc5[nH]c(=O)sc5c4)c23)C1)N1CCC(CO)CC1` (racemic) [Example 71, (RS)-6-[(7-{[4-(hydroxymethyl)piperidin-1-yl]carbonyl}-5,6,7,8-tetrahydro[1]benzothieno[2,3-d]pyrimidin-4-yl)amino]-1,3-benzothiazol-2(3H)-one], half-maximal inhibition (IC50) required 47 nM. The value for `COCCN1CCN(C(=O)C2CCc3c(sc4ncnc(Nc5ccc6[nH]c(=O)sc6c5)c34)C2)CC1` (racemic) [Example 72, (RS)-6-[(7-{[4-(2-methoxyethyl)piperazin-1-yl]carbonyl}-5,6,7,8-tetrahydro[1]benzothieno[2,3-d]pyrimidin-4-yl)amino]-1,3-benzothiazol-2(3H)-one] was 44 nM; that for `CN(C)C1CCN(C(=O)C2CCc3c(sc4ncnc(Nc5ccc6[nH]c(=O)sc6c5)c34)C2)C1` (racemic) [Example 73, 6-{[(7RS)-7-{[(3RS)-3-(dimethylamino)pyrrolidin-1-yl]carbonyl}-5,6,7,8-tetrahydro[1]benzothieno[2,3-d]pyrimidin-4-yl]amino}-1,3-benzothiazol-2(3H)-one] was 34 nM; that for `CN1CC2CC1CN2C(=O)C1CCc2c(sc3ncnc(Nc4ccc5[nH]c(=O)sc5c4)c23)C1` (racemic) [Example 74, 6-{[(7RS)-7-{[(1RS,4RS)-5-methyl-2,5-diazabicyclo[2.2.1]hept-2-yl]carbonyl}-5,6,7,8-tetrahydro[1]benzothieno[2,3-d]pyrimidin-4-yl]amino}-1,3-benzothiazol-2(3H)-one] was 47 nM. With `N#CC1CCCN(C(=O)C2CCc3c(sc4ncnc(Nc5ccc6[nH]c(=O)sc6c5)c34)C2)C1` (racemic) [Example 75, (3RS)-1-({(7RS)-4-[(2-oxo-2,3-dihydro-1,3-benzothiazol-6-yl)amino]-5,6,7,8-tetrahydro[1]benzothieno[2,3-d]pyrimidin-7-yl}carbonyl)piperidine-3-carbonitrile], it took 32 nM to reach half-maximal inhibition (IC50). The compound `N#CC1CCN(C(=O)C2CCc3c(sc4ncnc(Nc5ccc6[nH]c(=O)sc6c5)c34)C2)CC1` (racemic) [Example 76, (RS)-1-({4-[(2-oxo-2,3-dihydro-1,3-benzothiazol-6-yl)amino]-5,6,7,8-tetrahydro[1]benzothieno[2,3-d]pyrimidin-7-yl}carbonyl)piperidine-4-carbonitrile] gave an IC50 of 54 nM. This IC50 lies about 1.7-fold higher than the previous one. As to `COCC1CCCN1C(=O)C1CCc2c(sc3ncnc(Nc4ccc5[nH]c(=O)sc5c4)c23)C1` (racemic) [Example 77, 6-{[(7RS)-7-{[(2RS)-2-(methoxymethyl)pyrrolidin-1-yl]carbonyl}-5,6,7,8-tetrahydro[1]benzothieno[2,3-d]pyrimidin-4-yl]amino}-1,3-benzothiazol-2(3H)-one], the IC50 stood at 41 nM. The IC50 values of the last two compounds are within 1.5-fold of each other. Compound `O=C(C1CCc2c(sc3ncnc(Nc4ccc5[nH]c(=O)sc5c4)c23)C1)N1CCN(CC2CC2)CC1` (racemic) [Example 78, (RS)-6-[(7-{[4-(cyclopropylmethyl)piperazin-1-yl]carbonyl}-5,6,7,8-tetrahydro[1]benzothieno[2,3-d]pyrimidin-4-yl)amino]-1,3-benzothiazol-2(3H)-one] gave an IC50 of 34 nM.
